In one series the test system is T1, TRKA G667A.
T1 construct: ETV6 (1-336)-NTRK1 kinase domain (434-790) fusion expressed in Ba/F3
Description: cells. As to conditions: Mus musculus, BaF3, 72 h, read-out: LOXO195 GI50. On the set-up: species or system Ba/F3; CellTiter-Glo anti-proliferation of Ba/F3 cells transformed with ETV6-NTRK fusions. The protocol: (§1) To obtain the GI50 value of a substance, cell viability was measured using MTT (G4000, Promega, USA) for KM12(Luc) cell and Cell titer glo (G7572, Promega, USA) for other cell lines. For adherent cells, cells were seeded at 5,000 cells/well in a 96-well plate and treated with a substance one day after cell seeding. For suspension cells, 10,000 cells/well were seeded and the substance was treated after 4 h stabilization of cells. The substance was treated at 10 points of 1:3 serial dilution (0–100 µmol/L) for 72 h. For MTT assay, 15 µL dye solution was added to each well and incubated 4 h at 37°C. 100 µL of solubilization solution was added and followed 1 hr incubation. Absorbance at 570 nm of each well was recorded using EnVision microplate reader (Perkin Elmer). For Cell titer glo assay, Cell titer glo reagent was treated in each well and measured the luminescence by EnVision microplate reader (Perkin Elmer). Viable cells in each well were normalized by using 0.5% DMSO-treated wells (100%). The inhibitor dose−response curve was fitted and GI50 values were calculated using Prism 7.0 software (GraphPad). All assays were performed in duplicate and the standard deviation (SD) was determined from two independent experiments. To investigate the inhibitory activity of AZD4547 against clinically relevant TRK mutants which have resistance to the known TRK inhibitors ([8], [44]), we established Ba/F3 cell lines harboring the ETV6-NTRKs fusion genes (NTRK1, NTRK1G595R, NTRK1G667A, NTRK1G667C, NTRK1G667S and NTRK2) ( Supplementary Figure 2 ). The mutation status of each established cell line was confirmed by sequencing of its cDNA ( Supplementary Figure 2 ). The anti-proliferation activity of AZD4547 was then measured in each cell line ( Figure 2A and Table S2 ). […] However, AZD4547 has no inhibitory activity against Ba/F3 harboring clinically relevant TRKs mutants including TRKA G595R, TRKA G667S, TRKA G667C and TRKA G667A. We next evaluated if AZD4547 is capable of suppressing the phosphorylation of TRKA/B in Ba/F3 cell lines ( Figure 2B ). […] Also, phosphorylation of TRKA/B is almost completely abolished using 1 µM of AZD4547. […] (A) Summary of GI50s of AZD4547 against Ba/F3: TRKA mutants or TRKB. Cell viability after 72 h exposure to the indicated inhibitors, determined by using a cell titer glo assay in duplicate mode. Data was plotted as mean GI50 ± SD of two independent experiments. (B) AZD4547 inhibits phosphorylation of TRKA/B and PLC-gamma in Ba/F3 harboring TRKA and TRKB, respectively. […] Data are representative of three independent experiments.

The subject of the next series is T2, TRKA G595R.
T2 construct: ETV6 (1-336)-NTRK1 kinase domain (434-790) fusion expressed in Ba/F3
Kind of series: cells. Also on record: species or system Ba/F3; CellTiter-Glo anti-proliferation of Ba/F3 cells transformed with ETV6-NTRK fusions. The note with it: Mus musculus, BaF3, 72 h, read-out: LOXO195 GI50. The protocol:
as §1

For the next series, the system named is T3, TRKA G667S.
T3 construct: ETV6 (1-336)-NTRK1 kinase domain (434-790) fusion expressed in Ba/F3
Description: cells. Also on record: species or system Ba/F3; CellTiter-Glo anti-proliferation of Ba/F3 cells transformed with ETV6-NTRK fusions. The note with it: Mus musculus, BaF3, 72 h, read-out: LOXO195 GI50. The protocol:
as §1

Another series concerns T4, TRKB.
T4 construct: ETV6 (1-336)-NTRK2 kinase domain (455-822) fusion expressed in Ba/F3
Kind of series: cells. Also on record: species or system Ba/F3; CellTiter-Glo anti-proliferation of Ba/F3 cells transformed with ETV6-NTRK fusions. As to conditions: Mus musculus, BaF3, 72 h, read-out: LOXO195 GI50. The protocol: as §1

A further series deals with T5, TRKA G667C.
T5 construct: ETV6 (1-336)-NTRK1 kinase domain (434-790) fusion expressed in Ba/F3
Kind of series: cells. Also on record: species or system Ba/F3; CellTiter-Glo anti-proliferation of Ba/F3 cells transformed with ETV6-NTRK fusions. The note with it: Mus musculus, BaF3, 72 h, read-out: LOXO195 GI50. The protocol:
as §1

For another series, the system named is T6, TRKA.
T6 construct: ETV6 (1-336)-NTRK1 kinase domain (434-790) fusion expressed in Ba/F3
Description: cells. On the set-up: species or system Ba/F3; CellTiter-Glo anti-proliferation of Ba/F3 cells transformed with ETV6-NTRK fusions. The note with it: Mus musculus, BaF3, 72 h, read-out: LOXO195 GI50. How it is done: as §1

A short description of another series: in vitro. The note with it: mouse, parental ba/f3 cells. On the set-up: CellTiter-Glo viability of parental Ba/F3 cells, counter-screen. The protocol: To obtain the GI50 value of a substance, cell viability was measured using MTT (G4000, Promega, USA) for KM12(Luc) cell and Cell titer glo (G7572, Promega, USA) for other cell lines. For adherent cells, cells were seeded at 5,000 cells/well in a 96-well plate and treated with a substance one day after cell seeding. For suspension cells, 10,000 cells/well were seeded and the substance was treated after 4 h stabilization of cells. The substance was treated at 10 points of 1:3 serial dilution (0–100 µmol/L) for 72 h. For MTT assay, 15 µL dye solution was added to each well and incubated 4 h at 37°C. 100 µL of solubilization solution was added and followed 1 hr incubation. Absorbance at 570 nm of each well was recorded using EnVision microplate reader (Perkin Elmer). For Cell titer glo assay, Cell titer glo reagent was treated in each well and measured the luminescence by EnVision microplate reader (Perkin Elmer). Viable cells in each well were normalized by using 0.5% DMSO-treated wells (100%). The inhibitor dose−response curve was fitted and GI50 values were calculated using Prism 7.0 software (GraphPad). All assays were performed in duplicate and the standard deviation (SD) was determined from two independent experiments. […] Cell viability after 72 h exposure to the indicated inhibitors, determined by using a cell titer glo assay in duplicate mode. […]

Some results are limits rather than exact numbers.

For the molecule `C[C@@H]1CCc2ncc(F)cc2[C@H]2CCCN2c2ccn3ncc(c3n2)C(=O)N1` [LOXO195], the GI50 (as a rule, the concentration giving 50% growth inhibition) was determined as 0.0241 ± 0.0083 µM in the series on TRKA G667A; […] with TRKA G595R; 0.0355 ± 0.0025 µM in the series on TRKA G667S; […] in the series with TRKB; […] with TRKA G667C; […] with TRKA. In “in vitro”, the CC50 (usually the concentration giving 50% cytotoxicity) at 72 h is above 2 µM.
